Measured values as given in patent US20140323504A1, “Pyrazolo[4,3-c]Pyridine Derivatives As Kinase Inhibitors” (Cellzome Limited, priority 2011, published 2014).
pIC50: −log10 of the molar value. Where two headings read alike, the source gives them in different places.

Experiments:
BLK = biological target: T1, BLK (Homo sapiens, UniProt P51451); test: Kinobeads assay with quantitative mass spectrometry, BLK; assay type: binding; conditions: Jurkat/Ramos lysate, read-out: BLK inhibition value (IC50)
T1 construct: endogenous in cells; host or cells: 1:1 mix of Jurkat and Ramos cell lysates
T1 sequence (P51451 whole entry): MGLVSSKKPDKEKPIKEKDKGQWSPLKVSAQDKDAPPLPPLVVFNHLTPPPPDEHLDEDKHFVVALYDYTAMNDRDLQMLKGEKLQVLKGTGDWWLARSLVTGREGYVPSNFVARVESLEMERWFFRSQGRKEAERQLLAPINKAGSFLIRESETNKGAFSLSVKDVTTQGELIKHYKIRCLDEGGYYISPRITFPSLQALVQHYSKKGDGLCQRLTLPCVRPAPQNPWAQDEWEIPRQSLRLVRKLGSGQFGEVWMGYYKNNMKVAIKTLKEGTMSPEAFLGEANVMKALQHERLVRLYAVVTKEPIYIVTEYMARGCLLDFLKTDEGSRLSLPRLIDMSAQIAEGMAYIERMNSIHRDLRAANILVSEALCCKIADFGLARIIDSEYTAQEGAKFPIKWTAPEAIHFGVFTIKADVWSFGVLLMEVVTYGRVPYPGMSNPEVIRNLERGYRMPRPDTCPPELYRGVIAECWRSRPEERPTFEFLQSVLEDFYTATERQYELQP
Description: (§1) Selected compounds of the present invention as described in the previous examples were tested in a Kinobeads™ assay as described (WO-A 2006/134056; Bantscheff et al., 2007. Nature Bioteclmol. 25, 1035-1044).
(§2) Compounds were incubated with cell lysate aliquots (1:1 mix of Jurkat and Ramos cell lysates) for 45 minutes at 4° C. and allowed to bind to the proteins in the lysate sample. Then the Kinobeads™ affinity matrix was added to capture proteins that were not interacting with the previously added compound. After this two hour incubation step at 4° C. beads were separated from the lysate and bead bound proteins were eluted in SDS sample buffer and subsequently separated by SDS-Polyacrylamide gel electrophoresis. The gel was stained with colloidal Coomassie and stained areas of each gel lane were cut out and subjected to in-gel proteolytic digestion with trypsin. Peptides originating from the different gel areas were labeled with isobaric tagging reagents (TMT reagents, Thermofisher) as shown in Table 7. The TMT reagents are a set of multiplexed, amine-specific, stable isotope reagents that can label peptides in up to six different biological samples enabling simultaneous identification and quantitation of peptides. The combined samples were fractionated using reversed-phase chromatography at pH 11 and fractions were subsequently analyzed with a nano-flow liquid chromatography system coupled online to a tandem mass spectrometer (LC-MSMS) experiment followed by reporter ion quantification in the MSMS spectra (Ross et al., 2004. Mol. Cell. Proteomics 3(12):1154-1169; Dayon et al., 2008. Anal. Chem. 80(8):2921-2931; Thompson et al., 2003. Anal. Chem. 75(8):1895-1904). Further experimental protocols can be found in WO2006/134056 and previous publications (Bantscheff et al., 2007. Nat. Biotechnol. 25, 1035-1044; Bantscheff et al., 2011. Nat. Biotechnol. 29(3):255-265).

BTK = biological target: T2, BTK (Homo sapiens, UniProt Q06187); test: Kinobeads assay with quantitative mass spectrometry, BTK; assay type: binding; conditions: Jurkat/Ramos lysate, read-out: BTK inhibition value (IC50)
T2 construct: purchased ProQinase GmbH, Freiburg, Germany
T2 sequence (Q06187 whole entry): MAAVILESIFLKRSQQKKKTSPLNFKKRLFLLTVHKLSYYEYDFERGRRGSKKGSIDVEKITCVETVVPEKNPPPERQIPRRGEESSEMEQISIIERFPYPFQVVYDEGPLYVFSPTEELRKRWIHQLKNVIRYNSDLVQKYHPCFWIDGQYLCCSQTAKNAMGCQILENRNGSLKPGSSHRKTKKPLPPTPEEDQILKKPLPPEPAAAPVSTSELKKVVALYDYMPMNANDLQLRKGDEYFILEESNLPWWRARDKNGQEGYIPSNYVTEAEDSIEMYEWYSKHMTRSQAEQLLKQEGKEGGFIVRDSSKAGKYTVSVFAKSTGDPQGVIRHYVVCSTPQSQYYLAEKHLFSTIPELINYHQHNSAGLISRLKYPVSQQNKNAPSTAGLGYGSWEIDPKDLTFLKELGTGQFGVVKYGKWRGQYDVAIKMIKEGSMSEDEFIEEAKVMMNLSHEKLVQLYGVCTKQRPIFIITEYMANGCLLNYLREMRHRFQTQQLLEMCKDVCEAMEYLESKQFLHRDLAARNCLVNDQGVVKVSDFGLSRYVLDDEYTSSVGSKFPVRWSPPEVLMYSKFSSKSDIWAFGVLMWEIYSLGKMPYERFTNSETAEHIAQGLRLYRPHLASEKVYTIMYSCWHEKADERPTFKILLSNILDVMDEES
Description: as §1, §2

[1] = test system: STAT5 phosphorylation in IL-2 stimulated YT cells; test: Cell assay with washout of compounds (pSTAT5, YT cells, MSD); assay type: cell-based, human; conditions: for IC50: Homo sapiens; for retention of activity after washing: up to 4 hours after washing
Description: This time course experiment allows determination as to whether the pharmacological effect of the tested compounds persists over time even after the compound is removed from the cell samples.
Human YT cells were grown as described above. Cells were harvested by centrifugation and resuspended in RPMI0.5% heat-inactivated FBS. 3×10^5 cells were seeded in 60 μl per well in a round-bottomed 96 well plate (BD-Falcon, 353077).
Test compounds were dissolved in DMSO and a 1:3 dilution series (9 steps) was prepared. To generate a dose response curve, 30 μl of fourfold concentrated compound in 4% DMSO/RPMI/0.5% FBS were added to each cell sample in the 96 well plate resulting in a final DMSO concentration of 1% DMSO. Cells were incubated for one hour in a humidified incubator (37° C., 5% CO2). After incubation cells were washed twice by centrifugation and replacement of media (RPMI/0.5% FBS), with the exception of the time 0 plate. Washed cells were incubated for 30 min, 1, 2 and 4 hours in a humidified incubator (37° C., 5% CO2) prior to stimulation with IL-2. To each well 30 μl of a fourfold concentrated IL-2 solution (Recombinant human IL-2, Peprotech 200-02; 120 nM solution in RPMI) was added and incubated for 30 minutes at room temperature. Cells were lysed by adding 30 μl of 5× lysis buffer (MSD lysis buffer) and incubated for 10 minutes at 4° C. with gentle shaking.
The effect of compounds on STATS phosphorylation was determined in lysates using the MSD MULTI-SPOT® 96 4-spot phosphor-STAT5a,b whole cell lysatc kit (MesoScale Discovery, K150IGD-3) according to the manufacturer's protocol. Data were analysed in BioAssay using the nonlinear regression for a sigmoidal dose-response with a variable slope and IC50 values were determined.

ITK = biological target: T3, ITK (Homo sapiens, UniProt Q08881); test: Kinobeads assay with quantitative mass spectrometry, ITK; assay type: binding; conditions: Jurkat/Ramos lysate, read-out: ITK inhibition value (IC50)
T3 construct: purchased ProQinase GmbH, Freiburg, Germany
T3 sequence (Q08881 1-620): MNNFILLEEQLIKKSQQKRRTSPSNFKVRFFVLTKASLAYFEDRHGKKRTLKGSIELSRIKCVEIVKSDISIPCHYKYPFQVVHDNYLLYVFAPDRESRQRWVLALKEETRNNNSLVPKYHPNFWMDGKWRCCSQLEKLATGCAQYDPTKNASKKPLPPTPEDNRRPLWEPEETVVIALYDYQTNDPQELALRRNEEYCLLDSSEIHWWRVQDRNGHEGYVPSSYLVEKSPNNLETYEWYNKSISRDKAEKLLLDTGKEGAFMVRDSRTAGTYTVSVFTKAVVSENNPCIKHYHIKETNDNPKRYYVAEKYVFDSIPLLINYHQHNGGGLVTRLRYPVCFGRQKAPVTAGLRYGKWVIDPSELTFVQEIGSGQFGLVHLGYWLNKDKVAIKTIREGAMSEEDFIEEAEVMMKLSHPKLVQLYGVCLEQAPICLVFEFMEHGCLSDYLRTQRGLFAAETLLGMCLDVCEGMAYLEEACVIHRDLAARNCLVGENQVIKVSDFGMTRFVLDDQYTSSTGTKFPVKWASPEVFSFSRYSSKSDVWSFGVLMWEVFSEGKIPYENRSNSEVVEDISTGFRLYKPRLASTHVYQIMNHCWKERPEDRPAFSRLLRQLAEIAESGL
Description: as §1, §2

[2] = 0.5 h, read-out: pSTAT5 inhibition pIC50, 30 min after washout, IL-2 stimulated YT cells, 30 min after washout (converted)
[3] = 2 h, read-out: pSTAT5 inhibition pIC50, 2 hours after washout, IL-2 stimulated YT cells, 2 hours after washout (converted)
[4] = 4 h, IL-2 stimulated YT cells, 4 hours after washout, read-out: pSTAT5 inhibition pIC50, 4 hours after washout (converted)

SMILES	pIC50 (BLK)	pIC50 (BTK)	IC50 [1, 2]	IC50 [1, 3]	IC50 [1, 4]	retention of activity after washing ([1]; YT cells)	pIC50 (ITK)	activity 30 minutes after the washing of cells ([1]; YT cells, 30 minutes after washing)
C=CC(=O)Nc1cccc(Cn2ncc3cnc(Nc4cnn(C)c4)nc32)c1 [Example 1, N-(3-((6-((1-Methyl-1H-pyrazol-4-yl)amino)-1H-pyrazolo[3,4-d]pyrimidin-1-yl)methyl)phenyl)acrylamide]	7.70	7.92	200 nM	63.1 nM	100 nM	retain activity for up to 4 hours after washing with some drop in activity	7.07	
CC(=O)Nc1cccc(Cn2ncc3cnc(Nc4cnn(C)c4)nc32)c1 [compound 2, N-(3-((6-((1-methyl-1H-pyrazol-4-yl)amino)-1H-pyrazolo[3,4-d]pyrimidin-1-yl)methyl)phenyl)acetamide, reference compound]								completely lost
C=CC(=O)Nc1cc(Cn2ncc3cnc(Nc4cnn(C)c4)nc32)ccc1F [Example 2, […]]	6.39	7.14					6.09	
C#CC(=O)Nc1cccc(Cn2ncc3cnc(Nc4cnn(C)c4)nc32)c1 [Example 3, N-(3-((6-((1-Methyl-1H-pyrazol-4-yl)amino)-1H-pyrazolo[3,4-d]pyrimidin-1-yl)methyl)phenyl)propiolamide]	7.92	7.92	631 nM	79.4 nM	126 nM	retain activity for up to 4 hours after washing with some drop in activity	7.92	
